Laboratory results reported in paper PMC10916382, “Repurposing screen identifies novel candidates for broad-spectrum coronavirus antivirals and druggable host targets” (Antimicrobial Agents and Chemotherapy, 2024).
Where a name gives a salt, the structure may show the parent alone. Read-outs that look alike come from different tables or passages of the source.

Tests used:
HCoV-229E = test: microbe, parasite or virus in culture; type: cell-based, Homo sapiens sapiens
[1] = HCoV 229E infection, dose series, max. dose 5 µM, read-out: IC50
[2] = Huh-7.5 cells, dose series, maximum tested dose 5 µM

SMILES	Anti-SARS-CoV-2 screening on Calu-3 cells: viability [% of control] (SARS-CoV-2; Calu-3 cells)	Anti-SARS-CoV-2 screening on Calu-3 cells: intracellular SARS-CoV-2 infection measured via immunofluorescence imaging [% of control] (SARS-CoV-2; Calu-3 cells)	IC50 (HCoV-229E; [1]) [µM]	CC50 (µM) (Huh-7.5/F-Luc cells; [2])	% cell viability at max. dose [5 µM] (Huh-7.5/F-Luc cells; at max. dose 5 µM) [%]	IC50 (HCoV-229E; HCoV-229E/R-Luc on Huh-7.5/F-Luc cells, dose series, max. dose 5 µM, read-out: IC50 (µM), HCoV 229E) [µM]	% cell viability at max. dose [5 µM] (Huh-7.5/F-Luc cells; Huh-7.5/F-Luc cells, 5 µM) [%]	CC50 (µM) (Huh-7.5/F-Luc cells; Huh-7.5/F-Luc cells, maximum tested dose 5 µM)	Anti-SARS-CoV-2 screening on Calu-3 cells: viability [% of control] (SARS-CoV-2)	% cell viability at max. dose [5 µM] (Huh-7.5/F-Luc cells) [%]	CC50 (µM) (Huh-7.5/F-Luc cells)	IC50 (HCoV-229E; Human coronavirus 229E, Huh7.5) [µM]	IC50 (HCoV-229E; read-out: IC50) [µM]
Cc1cccc(/C=N/Nc2cc(N3CCOCC3)nc(OCCc3ccccn3)n2)c1 [Target 16/Apilimod mesilate]	101.93 % of control	135.01 % of control	0.2	greater than maximum tested dose	124.74	–	–	–	–	–	–	–	–
CCN(CC)CCCN1c2ccccc2Sc2ccc(Cl)cc21.Cl [Chlorproethazine HCl]	91.47 % of control	133.96 % of control	0.83	greater than maximum tested dose	142.02	–	–	–	–	–	–	–	–
CC/C(=C(\c1ccc(O)cc1)c1ccc(OCCNC)cc1)c1ccccc1.Cl [Endoxifen (hydrochloride)]	90.44 % of control	114.51 % of control	0.56	greater than maximum tested dose	148.79	–	–	–	–	–	–	–	–
Cc1ccc(Sc2ccccc2C2CCNCC2)cc1 [LU-AA24530]	106.74 % of control	100.77 % of control	0.68	greater than maximum tested dose	150.91	–	–	–	–	–	–	–	–
O=S(=O)(Nc1ccc(CCNC[C@H](O)c2cccnc2)cc1)c1ccc(-c2nc(-c3ccc(C(F)(F)F)cc3)cs2)cc1 [L 796568]	84.86 % of control	111.47 % of control	0.77	greater than maximum tested dose	149.63	–	–	–	–	–	–	–	–
CN(C)CCCOC(CCCCc1ccccc1)c1ccccc1 (stereo not shown) [SM-3163]	103.94 % of control	105.69 % of control	0.77	greater than maximum tested dose	166.12	–	–	–	–	–	–	–	–
CCNCc1cncc(-c2ccc3[nH]nc(-c4nc5c(F)cc(F)cc5[nH]4)c3c2)c1C [AG-024322]	54.61 % of control	108.94 % of control	0.78	greater than maximum tested dose	151.27	–	–	–	–	–	–	–	–
Oc1cccc[c]1[Hg][Cl] [RFM-006-841-7]	123.69 % of control	99.62 % of control	–	–	–	1.35	91.70	greater than maximum tested dose	–	–	–	–	–
CN1CC[C@H](c2c(O)cc(O)c3c(=O)cc(-c4ccccc4Cl)oc23)[C@H](O)C1 [Flavopiridol (Alvocidib)]	90.90 % of control	15.82 % of control	0.14	greater than maximum tested dose	115.14	–	–	–	–	–	–	–	–
C=CCc1c(OCCCNCc2ccccc2)ccc2c1[nH]c1ccccc12 [YM-75440]	100.37 % of control	109.36 % of control	0.73	greater than maximum tested dose	65.35	–	–	–	–	–	–	–	–
C=C1C[C@@H]2CC[C@@]34C[C@H]5O[C@H]6[C@@H](O3)[C@H]3O[C@H](CC[C@@H]3O[C@H]6[C@H]5O4)CC(=O)C[C@@H]3[C@@H](OC)[C@@H](C[C@H](O)CN)O[C@H]3C[C@H]3O[C@@H](CC[C@@H]1O2)C[C@@H](C)C3=C [Eribulin (mesylate)]	41.43 % of control	29.49 % of control	0.05	greater than maximum tested dose	97.37	–	–	–	–	–	–	–	–
Oc1ccc2c(c1)CC[C@H](c1ccccc1)[C@H]2c1ccc(OCCN2CCCC2)cc1 [Lasofoxifene tartrate]	103.26 % of control	99.99 % of control	0.54	greater than maximum tested dose	142.22	–	–	–	–	–	–	–	–
CC1(C)CC[C@]2(NC(=O)C(C)(F)F)CC[C@]3(C)[C@H](C(=O)C=C4[C@@]5(C)C=C(C#N)C(=O)C(C)(C)[C@@H]5CC[C@]43C)[C@@H]2C1 [RTA-63415 / Omaveloxolone]	–	99.52 % of control	0.08	–	–	–	–	–	122.72 % of control	77.27	greater than maximum tested dose	–	–
OC(CNCC(O)C1CCc2cc(F)ccc2O1)C1CCc2cc(F)ccc2O1 (stereo not shown) [Nebivolol HCl]	–	–	–	greater than maximum tested dose	–	–	–	–	–	–	–	1	–
OCCNCCOc1ccc(/C(=C(\c2ccccc2)C(F)(F)F)c2ccccc2)cc1 [PANOMIFENE]	98.59 % of control	95.32 % of control	–	greater than maximum tested dose	141.70	–	–	–	–	–	–	–	0.89
CN1C2CCC1CC(OC(c1ccccc1)c1ccc(Cl)cc1)C2.Cl (stereo not shown)	110.96 % of control	110.06 % of control	–	greater than maximum tested dose	144.12	–	–	–	–	–	–	–	0.69
CC(C)c1ccc2c(c1)C(N1CCN(CCO)CC1)Cc1ccc(F)cc1S2 (stereo not shown) [isofloxythepin]	97.70 % of control	105.07 % of control	0.79	greater than maximum tested dose	141.51	–	–	–	–	–	–	–	–
COc1cc(/C=C/C=C/C(=O)NCCN2CCC(OC(c3ccccc3)c3ccccc3)CC2)ccc1O [TMK-777]	98.98 % of control	102.42 % of control	1.13	greater than maximum tested dose	150.43	–	–	–	–	–	–	–	–
CN(C)C(C)(C)CSc1nc2ccccc2cc1-c1ccccc1 [ICI-170809]	98.23 % of control	103.59 % of control	0.52	greater than maximum tested dose	138.76	–	–	–	–	–	–	–	–
COc1cc2c(cc1N1C[C@@H](C)N[C@@H](C)C1)N(C(=O)c1ccc(-c3ccc(-c4noc(C)n4)cc3C)cc1)CC2 [SB-616234-A]	119.80 % of control	117.99 % of control	0.57	greater than maximum tested dose	143.19	–	–	–	–	–	–	–	–
Nc1ncccc1-c1nc2ccc(-c3ccccc3)nc2n1-c1ccc(C2(N)CCC2)cc1 [ARQ-092 (Miransertib mesylate)]	27.64 % of control	126.86 % of control	–	greater than maximum tested dose	98.72	–	–	–	–	–	–	–	–
COc1ccc2cc1Oc1ccc(cc1)C[C@H]1c3c(cc4c(c3Oc3cc5c(cc3OC)CCN(C)[C@@H]5C2)OCO4)CCN1C [Cepharanthine]	–	–	–	greater than maximum tested dose	–	–	–	–	–	–	–	0.47	–
